Laboratory results: patent publication US9969694B2, “N-(arylalkyl)-N′-pyrazolyl-urea, thiourea, guanidine and cyanoguanidine compounds as TrkA kinase inhibitors” (Array BioPharma Inc., priority 2012, dated 2018)

Assays:
Assay in all cases: Off-Target Kinase Profiling
Assay type in all cases: biochemical
Settings in all cases: 10 μM; ATP near Km
AMPK(A1/B1/G1) = biological target: T1, AMPK(A1/B1/G1) (Homo sapiens, UniProt Q13131)
T1 construct: purchased Millipore (KinaseProfiler service)
Experimental: (§1) Representative compounds of the invention (Examples 33 and 10) were tested for off-target kinase activity at a concentration of 10 μM by Millipore, Inc. in their KinaseProfiler™ service against all the kinases available in their full kinase panel. Compounds were run in duplicate at a concentration of ATP near the Km for each individual kinase according to Millipore's specifications. The results are shown in Table B. Data are reported as percent of control (POC) and are the average of the two replicates.

Abl-P = biological target: T2, Abl-P (Homo sapiens, UniProt P00519)
T2 construct: purchased Millipore (KinaseProfiler service)
Experimental: as §1

BTK = biological target: T3, BTK (Homo sapiens, UniProt Q06187)
T3 construct: purchased Millipore (KinaseProfiler service)
Experimental: as §1

CAMK4 = biological target: T4, CAMK4 (Homo sapiens, UniProt Q16566)
T4 construct: purchased Millipore (KinaseProfiler service)
Experimental: as §1

CDK1/cyclinB = biological target: T5, CDK1/cyclinB (Homo sapiens, UniProt P06493)
T5 construct: purchased Millipore (KinaseProfiler service)
Experimental: as §1

CDK6/cyclinD3 = biological target: T6, CDK6/cyclinD3 (Homo sapiens, UniProt Q00534)
T6 construct: purchased Millipore, Inc. (KinaseProfiler service)
Experimental: as §1

CHK1 = biological target: T7, CHK1 (Homo sapiens, UniProt O14757)
T7 construct: purchased Millipore, Inc. (KinaseProfiler service)
Experimental: as §1

CK1gamma1 = biological target: T8, CK1gamma1 (Homo sapiens, UniProt Q9HCP0)
T8 construct: purchased Millipore, Inc. (KinaseProfiler service)
Experimental: as §1

CK2alpha2 = biological target: T9, CK2alpha2 (Homo sapiens, UniProt P19784)
T9 construct: purchased Millipore, Inc. (KinaseProfiler service)
Experimental: as §1

DAPK1 = biological target: T10, DAPK1 (Homo sapiens, UniProt P53355)
T10 construct: purchased Millipore, Inc. (KinaseProfiler service)
T10 sequence (P53355 whole entry): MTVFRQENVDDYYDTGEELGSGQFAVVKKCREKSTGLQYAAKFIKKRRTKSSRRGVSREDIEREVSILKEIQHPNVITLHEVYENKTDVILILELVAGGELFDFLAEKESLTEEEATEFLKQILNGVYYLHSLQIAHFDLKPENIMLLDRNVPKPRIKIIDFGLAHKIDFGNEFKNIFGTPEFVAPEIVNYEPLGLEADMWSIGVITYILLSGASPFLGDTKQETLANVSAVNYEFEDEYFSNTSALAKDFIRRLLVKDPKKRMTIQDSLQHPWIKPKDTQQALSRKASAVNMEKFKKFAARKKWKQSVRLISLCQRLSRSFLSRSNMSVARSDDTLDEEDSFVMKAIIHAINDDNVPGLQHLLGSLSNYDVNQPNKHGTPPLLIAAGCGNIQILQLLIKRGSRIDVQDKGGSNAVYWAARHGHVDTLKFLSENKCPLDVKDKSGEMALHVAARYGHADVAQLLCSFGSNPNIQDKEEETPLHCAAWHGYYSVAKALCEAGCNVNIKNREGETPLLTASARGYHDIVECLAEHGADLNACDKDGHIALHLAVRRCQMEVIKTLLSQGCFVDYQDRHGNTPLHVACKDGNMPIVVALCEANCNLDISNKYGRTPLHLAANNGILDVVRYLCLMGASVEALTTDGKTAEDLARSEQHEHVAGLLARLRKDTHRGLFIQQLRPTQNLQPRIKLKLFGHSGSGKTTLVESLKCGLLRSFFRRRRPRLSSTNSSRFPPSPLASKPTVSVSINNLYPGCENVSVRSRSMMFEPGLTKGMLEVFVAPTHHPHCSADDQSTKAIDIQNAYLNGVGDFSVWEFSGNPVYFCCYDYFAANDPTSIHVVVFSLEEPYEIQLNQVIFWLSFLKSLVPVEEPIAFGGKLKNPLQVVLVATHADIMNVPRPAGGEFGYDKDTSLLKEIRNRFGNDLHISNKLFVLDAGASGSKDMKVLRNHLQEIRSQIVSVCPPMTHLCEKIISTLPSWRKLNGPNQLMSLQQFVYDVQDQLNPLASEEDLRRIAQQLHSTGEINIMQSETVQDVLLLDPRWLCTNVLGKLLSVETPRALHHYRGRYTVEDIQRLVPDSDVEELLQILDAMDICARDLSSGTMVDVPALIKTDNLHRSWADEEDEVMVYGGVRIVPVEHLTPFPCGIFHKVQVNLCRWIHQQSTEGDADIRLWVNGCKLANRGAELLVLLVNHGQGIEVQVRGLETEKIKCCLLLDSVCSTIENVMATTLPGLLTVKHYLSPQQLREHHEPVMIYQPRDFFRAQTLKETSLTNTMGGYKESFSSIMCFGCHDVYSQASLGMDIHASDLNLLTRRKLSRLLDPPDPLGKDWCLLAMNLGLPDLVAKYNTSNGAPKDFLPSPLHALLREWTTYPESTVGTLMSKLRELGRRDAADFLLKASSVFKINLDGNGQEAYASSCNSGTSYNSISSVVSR
Experimental: as §1

DAPK2 = biological target: T11, DAPK2 (Homo sapiens, UniProt Q9UIK4)
T11 construct: purchased Millipore, Inc. (KinaseProfiler service)
Experimental: as §1

DRAK1 = biological target: T12, DRAK1 (Homo sapiens, UniProt Q9UEE5)
T12 construct: purchased Millipore, Inc. (KinaseProfiler service)
T12 sequence (Q9UEE5 whole entry): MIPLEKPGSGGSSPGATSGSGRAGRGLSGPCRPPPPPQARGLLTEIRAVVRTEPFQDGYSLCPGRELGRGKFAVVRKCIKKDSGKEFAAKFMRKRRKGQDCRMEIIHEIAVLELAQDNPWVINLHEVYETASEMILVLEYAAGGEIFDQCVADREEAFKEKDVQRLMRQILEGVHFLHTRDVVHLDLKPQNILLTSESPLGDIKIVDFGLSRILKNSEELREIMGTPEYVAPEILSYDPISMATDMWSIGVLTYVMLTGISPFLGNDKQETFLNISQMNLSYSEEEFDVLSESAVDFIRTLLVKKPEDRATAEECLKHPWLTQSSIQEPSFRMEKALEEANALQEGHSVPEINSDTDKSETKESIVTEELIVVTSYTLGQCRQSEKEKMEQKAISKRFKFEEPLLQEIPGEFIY
Experimental: as §1

EphA1 = biological target: T13, EphA1 (Homo sapiens, UniProt P21709)
T13 construct: purchased Millipore, Inc. (KinaseProfiler service)
Experimental: as §1

EphB4 = biological target: T14, EphB4 (Homo sapiens, UniProt P54760)
T14 construct: purchased Millipore, Inc. (KinaseProfiler service)
T14 sequence (P54760 16-987): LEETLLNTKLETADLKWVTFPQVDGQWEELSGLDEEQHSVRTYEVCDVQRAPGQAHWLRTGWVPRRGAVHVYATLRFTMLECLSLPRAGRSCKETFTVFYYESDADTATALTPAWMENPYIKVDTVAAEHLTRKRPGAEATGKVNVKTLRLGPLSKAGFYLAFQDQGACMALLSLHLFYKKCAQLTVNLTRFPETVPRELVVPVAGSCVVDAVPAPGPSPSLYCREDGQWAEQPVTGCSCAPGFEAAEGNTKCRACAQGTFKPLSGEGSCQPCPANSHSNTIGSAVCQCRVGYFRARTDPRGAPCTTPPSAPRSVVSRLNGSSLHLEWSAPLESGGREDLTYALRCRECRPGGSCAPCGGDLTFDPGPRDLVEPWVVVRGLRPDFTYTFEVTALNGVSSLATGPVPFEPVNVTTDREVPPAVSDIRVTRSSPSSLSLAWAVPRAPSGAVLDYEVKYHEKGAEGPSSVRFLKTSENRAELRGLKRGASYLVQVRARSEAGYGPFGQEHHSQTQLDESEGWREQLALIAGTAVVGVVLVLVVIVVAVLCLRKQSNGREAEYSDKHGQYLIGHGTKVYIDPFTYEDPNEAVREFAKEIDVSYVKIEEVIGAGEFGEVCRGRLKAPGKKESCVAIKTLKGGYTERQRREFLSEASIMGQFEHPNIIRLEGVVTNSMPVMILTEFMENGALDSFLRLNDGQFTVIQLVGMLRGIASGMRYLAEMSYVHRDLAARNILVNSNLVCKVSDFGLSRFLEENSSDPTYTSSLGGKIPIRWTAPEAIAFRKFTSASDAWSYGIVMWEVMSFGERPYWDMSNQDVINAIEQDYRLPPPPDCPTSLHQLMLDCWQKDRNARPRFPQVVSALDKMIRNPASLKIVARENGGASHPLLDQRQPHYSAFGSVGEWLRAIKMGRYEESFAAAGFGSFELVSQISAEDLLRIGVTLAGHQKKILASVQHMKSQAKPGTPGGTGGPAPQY
Experimental: as §1

FAK = biological target: T15, FAK (Homo sapiens, UniProt Q05397)
T15 construct: purchased Millipore, Inc. (KinaseProfiler service)
Experimental: as §1

GRK5 = biological target: T16, GRK5 (Homo sapiens, UniProt P34947)
T16 construct: purchased Millipore, Inc. (KinaseProfiler service)
Experimental: as §1

GRK6 = biological target: T17, GRK6 (Homo sapiens, UniProt P43250)
T17 construct: purchased Millipore, Inc. (KinaseProfiler service)
Experimental: as §1

GRK7 = biological target: T18, GRK7 (Homo sapiens, UniProt Q8WTQ7)
T18 construct: purchased Millipore, Inc. (KinaseProfiler service)
T18 sequence (Q8WTQ7 whole entry): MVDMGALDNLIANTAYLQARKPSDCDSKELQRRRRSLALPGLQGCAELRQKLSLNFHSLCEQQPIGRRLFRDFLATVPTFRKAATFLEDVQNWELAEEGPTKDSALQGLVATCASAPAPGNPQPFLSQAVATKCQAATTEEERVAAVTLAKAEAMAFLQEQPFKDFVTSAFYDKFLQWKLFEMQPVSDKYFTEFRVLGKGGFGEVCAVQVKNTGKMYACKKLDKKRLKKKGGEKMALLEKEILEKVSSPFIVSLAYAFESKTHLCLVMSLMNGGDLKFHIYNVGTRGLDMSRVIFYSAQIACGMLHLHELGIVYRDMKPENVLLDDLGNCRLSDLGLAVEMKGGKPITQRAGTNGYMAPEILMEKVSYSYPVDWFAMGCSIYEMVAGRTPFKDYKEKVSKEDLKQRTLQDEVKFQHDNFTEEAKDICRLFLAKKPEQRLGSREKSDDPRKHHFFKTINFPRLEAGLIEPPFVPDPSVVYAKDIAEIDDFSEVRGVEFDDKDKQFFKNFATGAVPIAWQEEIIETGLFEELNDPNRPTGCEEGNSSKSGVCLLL
Experimental: as §1

Hck = biological target: T19, Hck (Homo sapiens, UniProt P08631)
T19 construct: purchased Millipore, Inc. (KinaseProfiler service)
Experimental: as §1

JAK3 = biological target: T20, JAK3 (Homo sapiens, UniProt P52333)
T20 construct: purchased Millipore, Inc. (KinaseProfiler service)
Experimental: as §1

JNK1alpha1 = biological target: T21, JNK1alpha1 (Homo sapiens, UniProt P45983)
T21 construct: purchased Millipore, Inc. (KinaseProfiler service)
Experimental: as §1

LOK = biological target: T22, LOK (Homo sapiens, UniProt O94804)
T22 construct: purchased Millipore, Inc. (KinaseProfiler service)
Experimental: as §1

Lck = biological target: T23, Lck (Homo sapiens, UniProt P06239)
T23 construct: purchased Millipore, Inc. (KinaseProfiler service)
T23 sequence (P06239 whole entry): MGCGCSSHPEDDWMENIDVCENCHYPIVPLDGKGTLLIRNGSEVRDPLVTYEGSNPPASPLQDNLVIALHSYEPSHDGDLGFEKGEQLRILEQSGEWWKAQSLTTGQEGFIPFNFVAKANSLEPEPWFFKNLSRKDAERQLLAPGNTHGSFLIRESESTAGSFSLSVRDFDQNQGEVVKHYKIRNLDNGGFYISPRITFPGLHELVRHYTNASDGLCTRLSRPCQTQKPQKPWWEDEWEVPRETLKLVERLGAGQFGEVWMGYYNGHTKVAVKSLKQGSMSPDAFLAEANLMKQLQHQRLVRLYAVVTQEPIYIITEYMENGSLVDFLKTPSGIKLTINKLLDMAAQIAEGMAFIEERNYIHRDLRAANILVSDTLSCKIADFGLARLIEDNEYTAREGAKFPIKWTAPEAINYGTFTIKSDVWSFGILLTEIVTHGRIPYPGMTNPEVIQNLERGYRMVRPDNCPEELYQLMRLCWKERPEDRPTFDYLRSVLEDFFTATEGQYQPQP
Experimental: as §1

Lyn = biological target: T24, Lyn (Homo sapiens, UniProt P07948)
T24 construct: purchased Millipore, Inc. (KinaseProfiler service)
Experimental: as §1

MAP3K5 = biological target: T25, MAP3K5 (Homo sapiens, UniProt Q99683)
T25 construct: purchased Millipore, Inc. (KinaseProfiler service)
Experimental: as §1

MEK1 = biological target: T26, MEK1 (Homo sapiens, UniProt Q02750)
T26 construct: purchased Millipore, Inc. (KinaseProfiler service)
T26 sequence (Q02750 whole entry): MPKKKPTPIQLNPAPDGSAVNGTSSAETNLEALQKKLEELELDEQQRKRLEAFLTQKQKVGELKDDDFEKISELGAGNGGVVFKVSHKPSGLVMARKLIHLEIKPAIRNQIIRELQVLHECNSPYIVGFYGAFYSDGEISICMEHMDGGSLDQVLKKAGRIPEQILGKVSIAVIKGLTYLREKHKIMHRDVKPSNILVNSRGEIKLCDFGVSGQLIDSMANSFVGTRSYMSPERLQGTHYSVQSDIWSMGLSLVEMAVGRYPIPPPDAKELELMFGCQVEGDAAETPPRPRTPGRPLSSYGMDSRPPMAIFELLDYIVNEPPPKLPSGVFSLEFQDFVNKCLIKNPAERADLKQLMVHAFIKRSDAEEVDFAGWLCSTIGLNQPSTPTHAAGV
Experimental: as §1

MELK = biological target: T27, MELK (Homo sapiens, UniProt Q14680)
T27 construct: purchased Millipore, Inc. (KinaseProfiler service)
Experimental: as §1

MRCKalpha = biological target: T28, MRCKalpha (Homo sapiens, UniProt Q5VT25)
T28 construct: purchased Millipore, Inc. (KinaseProfiler service)
Experimental: as §1

MYLK = biological target: T29, MYLK (Homo sapiens, UniProt Q15746)
T29 construct: purchased Millipore, Inc. (KinaseProfiler service)
Experimental: as §1

Met = biological target: T30, Met (Homo sapiens, UniProt P08581)
T30 construct: purchased Millipore, Inc. (KinaseProfiler service)
Experimental: as §1

PDGFRalpha = biological target: T31, PDGFRalpha (Homo sapiens, UniProt P16234)
T31 construct: purchased Millipore, Inc. (KinaseProfiler service)
Experimental: as §1

PKCgamma = biological target: T32, PKCgamma (Homo sapiens, UniProt P05129)
T32 construct: purchased Millipore, Inc. (KinaseProfiler service)
Experimental: as §1

PKCzeta = biological target: T33, PKCzeta (Homo sapiens, UniProt Q05513)
T33 construct: purchased Millipore, Inc. (KinaseProfiler service)
Experimental: as §1

PRK2 = biological target: T34, PRK2 (Homo sapiens, UniProt Q16513)
T34 construct: purchased Millipore, Inc. (KinaseProfiler service)
Experimental: as §1

PhKgamma2 = biological target: T35, PhKgamma2 (Homo sapiens, UniProt P15735)
T35 construct: purchased Millipore, Inc. (KinaseProfiler service)
Experimental: as §1

Pim-3 = biological target: T36, Pim-3 (Homo sapiens, UniProt Q86V86)
T36 construct: purchased Millipore, Inc. (KinaseProfiler service)
Experimental: as §1

RIPK2 = biological target: T37, RIPK2 (Homo sapiens, UniProt O43353)
T37 construct: purchased Millipore, Inc. (KinaseProfiler service)
Experimental: as §1

STK33 = biological target: T38, STK33 (Homo sapiens, UniProt Q9BYT3)
T38 construct: purchased Millipore, Inc. (KinaseProfiler service)
Experimental: as §1

TrkB = biological target: T39, TrkB (Homo sapiens, UniProt Q16620)
T39 construct: purchased Millipore, Inc. (KinaseProfiler service)
T39 sequence (Q16620 32-822): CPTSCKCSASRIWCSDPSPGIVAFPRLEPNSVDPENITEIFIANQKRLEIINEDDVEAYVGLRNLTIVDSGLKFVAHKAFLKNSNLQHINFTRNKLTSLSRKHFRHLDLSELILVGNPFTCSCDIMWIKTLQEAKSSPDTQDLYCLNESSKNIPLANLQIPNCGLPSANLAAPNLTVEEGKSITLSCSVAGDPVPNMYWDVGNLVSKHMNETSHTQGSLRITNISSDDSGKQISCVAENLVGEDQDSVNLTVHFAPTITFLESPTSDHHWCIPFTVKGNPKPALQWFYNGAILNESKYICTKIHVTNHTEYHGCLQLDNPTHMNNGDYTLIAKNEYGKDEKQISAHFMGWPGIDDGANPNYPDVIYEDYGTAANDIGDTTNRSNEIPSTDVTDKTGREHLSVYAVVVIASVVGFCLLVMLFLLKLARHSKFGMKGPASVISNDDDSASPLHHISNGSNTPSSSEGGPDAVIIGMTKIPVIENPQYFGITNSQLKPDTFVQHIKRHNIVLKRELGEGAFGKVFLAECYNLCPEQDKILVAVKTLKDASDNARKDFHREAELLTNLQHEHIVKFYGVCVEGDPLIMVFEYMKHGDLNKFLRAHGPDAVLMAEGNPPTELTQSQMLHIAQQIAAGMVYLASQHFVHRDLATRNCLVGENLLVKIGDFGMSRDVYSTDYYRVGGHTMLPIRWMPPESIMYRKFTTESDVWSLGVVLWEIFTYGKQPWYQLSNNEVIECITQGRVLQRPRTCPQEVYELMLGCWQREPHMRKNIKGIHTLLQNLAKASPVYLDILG
Experimental: as §1

mTOR = biological target: T40, mTOR (Homo sapiens, UniProt P42345)
T40 construct: purchased Millipore, Inc. (KinaseProfiler service)
Experimental: as §1

mTOR/FKBP12 = biological target: T41, mTOR/FKBP12 (Homo sapiens, UniProt P42345)
T41 construct: purchased Millipore, Inc. (KinaseProfiler service)
Experimental: as §1

COCc1ccc(C2CCC2)c(CNC(=O)Nc2c(C)c(-c3cnc(C)nc3)nn2-c2ccccc2)c1 [Example 10, 1-(2-cyclobutyl-5-(methoxymethyl)benzyl)-3-(4-methyl-3-(2-methylpyrimidin-5-yl)-1-phenyl-1H-pyrazol-5-yl)urea]
Avg POC AMPK(A1/B1/G1) (AMPK(A1/B1/G1)): 111.5 POC | Avg POC Abl-P (Abl-P): 97 POC | Avg POC BTK (BTK): 117.5 POC | Avg POC CAMK4 (CAMK4): 144.5 POC | Avg POC CDK1/cyclinB (CDK1/cyclinB): 92 POC | Avg POC CDK6/cyclinD3 (CDK6/cyclinD3): 102 POC | Avg POC CHK1 (CHK1): 102.5 POC | Avg POC CK1gamma1 (CK1gamma1): 79 POC | Avg POC CK2alpha2 (CK2alpha2): 109 POC | Avg POC DAPK1 (DAPK1): 98 POC | Avg POC DAPK2 (DAPK2): 105 POC | Avg POC DRAK1 (DRAK1): 92.5 POC | Avg POC EphA1 (EphA1): 98 POC | Avg POC EphB4 (EphB4): 140.5 POC | Avg POC FAK (FAK): 96.5 POC | Avg POC GRK5 (GRK5): 81.5 POC | Avg POC GRK6 (GRK6): 97.5 POC | Avg POC GRK7 (GRK7): 105 POC | Avg POC Hck (Hck): 67 POC | Avg POC JAK3 (JAK3): 94.5 POC | Avg POC JNK1alpha1 (JNK1alpha1): 98 POC | Avg POC LOK (LOK): 101 POC | Avg POC Lck (Lck): 75.5 POC | Avg POC Lyn (Lyn): 86 POC | Avg POC MAP3K5 (MAP3K5): 99 POC | Avg POC MEK1 (MEK1): 121 POC | Avg POC MELK (MELK): 83.5 POC | Avg POC MRCKalpha (MRCKalpha): 122 POC | Avg POC MYLK (MYLK): 88 POC | Avg POC Met (Met): 117 POC | Avg POC PDGFRalpha (PDGFRalpha): 102 POC | Avg POC PKCgamma (PKCgamma): 101 POC | Avg POC PKCzeta (PKCzeta): 92.5 POC | Avg POC PRK2 (PRK2): 88.5 POC | Avg POC PhKgamma2 (PhKgamma2): 118 POC | Avg POC Pim-3 (Pim-3): 105.5 POC | Avg POC RIPK2 (RIPK2): 99 POC | Avg POC STK33 (STK33): 98 POC | Avg POC TrkB (TrkB): 0.5 POC | Avg POC mTOR (mTOR): 75 POC | Avg POC mTOR/FKBP12 (mTOR/FKBP12): 97.5 POC

COCc1ccc(C(F)(F)F)c(CNC(=O)Nc2c(C)c(-c3cnn(C)c3)nn2-c2ccccc2)c1 [Example 33, 1-(1′,4-dimethyl-1-phenyl-1H,1′H-[3,4′-bipyrazol]-5-yl)-3-(5-(methoxymethyl)-2-(trifluoromethyl)benzyl)urea]
Avg POC AMPK(A1/B1/G1) (AMPK(A1/B1/G1)): 147.5 POC | Avg POC Abl-P (Abl-P): 170.5 POC | Avg POC BTK (BTK): 125 POC | Avg POC CAMK4 (CAMK4): 149 POC | Avg POC CDK1/cyclinB (CDK1/cyclinB): 99 POC | Avg POC CDK6/cyclinD3 (CDK6/cyclinD3): 108 POC | Avg POC CHK1 (CHK1): 97 POC | Avg POC CK1gamma1 (CK1gamma1): 105.5 POC | Avg POC CK2alpha2 (CK2alpha2): 99.5 POC | Avg POC DAPK1 (DAPK1): 141.5 POC | Avg POC DAPK2 (DAPK2): 109.5 POC | Avg POC DRAK1 (DRAK1): 141.5 POC | Avg POC EphA1 (EphA1): 90 POC | Avg POC EphB4 (EphB4): 128 POC | Avg POC FAK (FAK): 99 POC | Avg POC GRK5 (GRK5): 82 POC | Avg POC GRK6 (GRK6): 99 POC | Avg POC GRK7 (GRK7): 103 POC | Avg POC Hck (Hck): 140 POC | Avg POC JAK3 (JAK3): 114 POC | Avg POC JNK1alpha1 (JNK1alpha1): 103 POC | Avg POC LOK (LOK): 93.5 POC | Avg POC Lck (Lck): 93 POC | Avg POC Lyn (Lyn): 104.5 POC | Avg POC MAP3K5 (MAP3K5): 100 POC | Avg POC MEK1 (MEK1): 117 POC | Avg POC MELK (MELK): 114 POC | Avg POC MRCKalpha (MRCKalpha): 147 POC | Avg POC MYLK (MYLK): 100.5 POC | Avg POC Met (Met): 122.5 POC | Avg POC PDGFRalpha (PDGFRalpha): 126.5 POC | Avg POC PKCgamma (PKCgamma): 98 POC | Avg POC PKCzeta (PKCzeta): 99 POC | Avg POC PRK2 (PRK2): 106 POC | Avg POC PhKgamma2 (PhKgamma2): 116 POC | Avg POC Pim-3 (Pim-3): 103 POC | Avg POC RIPK2 (RIPK2): 98.5 POC | Avg POC STK33 (STK33): 104.5 POC | Avg POC TrkB (TrkB): 0 POC | Avg POC mTOR (mTOR): 99 POC | Avg POC mTOR/FKBP12 (mTOR/FKBP12): 109.5 POC
